Two compounds from US10842151B2, “Small molecule compound for enhancing plant stress resistance” (SHANGHAI INSTITUTES FOR BIOLOGICAL SCIENCES, CHINESE …, priority 2015, dated 2020) can be followed below.

For experiment [1], the target named is T1, PYL2 + HAB1 (Arabidopsis thaliana, UniProt O80992).
T1 construct: made in house; host or cells: E. coli BL21 (DE3)
T1 sequence (O80992 14-188 limits assumed): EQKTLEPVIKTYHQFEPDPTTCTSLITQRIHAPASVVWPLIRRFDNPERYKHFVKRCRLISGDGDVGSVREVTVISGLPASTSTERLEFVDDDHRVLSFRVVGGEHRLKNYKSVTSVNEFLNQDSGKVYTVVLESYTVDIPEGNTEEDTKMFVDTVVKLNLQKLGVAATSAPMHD
T1 sequence (Q9CAJ0 172-511 partner limits assumed): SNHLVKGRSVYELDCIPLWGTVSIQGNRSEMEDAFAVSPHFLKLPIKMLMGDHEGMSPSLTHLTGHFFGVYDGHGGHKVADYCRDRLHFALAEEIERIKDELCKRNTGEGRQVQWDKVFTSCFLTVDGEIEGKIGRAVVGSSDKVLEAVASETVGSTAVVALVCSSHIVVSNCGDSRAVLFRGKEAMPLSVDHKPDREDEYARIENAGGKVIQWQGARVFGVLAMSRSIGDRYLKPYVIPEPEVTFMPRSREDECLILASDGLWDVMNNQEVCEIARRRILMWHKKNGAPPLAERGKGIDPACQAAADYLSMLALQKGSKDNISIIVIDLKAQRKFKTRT
Kind of experiment: AlphaScreen experiment, PYL2 + HAB1. The class given is binding. Particulars: number in brackets; read-out: Half maximum effect concentration EC50 (PYL2 + HAB1). As for the experimental part: (§1) After incubating for 1.5 hours at room temperature in the dark, it was placed into an Envision Plate Reader (available from Perkin Elmer) under the programmed AlphaScreen procedure for readings.
In general terms: Bead proximity is the source of the signal in Alpha formats.

Experiment [2] concerns the target T1, PYL2 + HAB1. Kind of experiment: HAB1 phosphatase activity assay with PYL2, SnRK2.6 phosphorylated polypeptide substrate. Type of experiment: biochemical. Particulars: PYL2 receptor; same concentration as ABA. The method, then:
(§2) HAB1 Phosphatase Activity Assay […] The reaction system was incubated at room temperature for 30 minutes, followed by a further reaction for 30 minutes after adding an 11-amono acid phosphorylated polypeptide as a substrate. The phosphorylated polypeptide consisting of amino acid 170-180 of SnRK2.6 protein kinase (sequence […]) was purchased from […] company, wherein phosphorylated […] was a known HAB1 dephosphorylation target site. After 30 minutes, chromogenic reagent (purchased from BioVision) was added and the absorbance at 650 nm was read on a microplate reader (Molecular Devices).

Experiment [3] deals with PYR/PYL receptors (PYR1, PYL1, PYL2 and PYL7)-HAB1 complex. Briefly: Broad spectrum experiment on PYR/PYL receptors (HAB1 phosphatase activity). Conditions: 1 μM; for binding ability with PYR1/PYL1/PYL2/PYL7 compared with ABA: FIG. 1, FIG. 13. Type of experiment: biochemical, Arabidopsis. As for the experimental part:
as §2

Experiment [4] has as its system PYR1/PYL1/PYL2/PYL7 + HAB1. Briefly: AlphaScreen experiment, PYL receptor binding to HAB1. Particulars: AMX: PYR1/PYL1/PYL2/PYL7; 0720B: PYL2 receptor and PYL1 receptor. Details: species or system Arabidopsis. The method, then:
as §1

Experiment [5] deals with soybean Williams 82. Kind of experiment: Soybean leaf transpiration experiment (thermal imaging). The class given is in vivo. The method, then: After three weeks of continuous watering, 0.05% tween-20 and corresponding concentrations of DMSO (control)/compound (+)-ABA/0918/1127 were sprayed onto the plants in a single administration with an amount of 1.2 ml/pot. Images were taken daily using the FLIR A655sc thermal imaging camera at the same time before and after spraying. The Williams 82 ecotype was used in soybean leaf transpiration experiments for compounds 0604c, 0918 and 1127 and was long-day cultured at 26° C. After the plants grew and had 3 leaves in each of 3 groups, 0.05% tween-20 and 50 μM DMSO (control)/(+)-ABA/0604c/0918/1127 compounds were sprayed in a single administration with an amount of 4 ml/pot. Images were taken daily using the FLIR A655sc thermal imaging camera at the same time before and after spraying.
(§3) Leaf transpiration experiments of soybean and cotton for compound 0720B were carried out at 26° C. with long-day lighting. 16 days and 23 days after sowing, a solution containing 0.1% tween-20 and corresponding concentration of (+)-ABA, or 0720B compound or 0.1% Tween-20 and 0.05% DMSO (control) was sprayed in an amount of 4 ml/pot. Images were taken daily using the FLIR A655sc thermal imaging camera at the same time before and after spraying.

Experiment [6] concerns cotton. Briefly: Cotton leaf transpiration experiment (thermal imaging). The class given is in vivo. Conditions: 50 μM; after two days; vs DMSO. The method, then: as §3
For experiment [7], the system named is soybean. Briefly: Soil drought experiment, soybean. The class given is in vivo. The method, then: Only one plant was contained in each pot. All soybean plants were long-day cultured at 26° C. Watering was stopped after the plant had three leaves in each of three groups of leaves and the plants with consistent growth were selected for drought treatment. As for corn, watering was stopped during the small trumpet period for drought treatment. […] After a week, the watering was resumed. Soybeans and cotton used in leaf transpiration experiments for compound 0720B were also used for soil drought experiments. Each pot contained only one plant and was filled with the same weight of soil to reduce experimental errors. All of the soybean plants were grown at 26° C. for long-day culture. 16 days after seeding, watering was stopped and the plants with consistent growth were selected for drought treatment. […] Cotton drought experiments were similar to that of the soybean. 23 days after seeding, the watering was stopped, and the plants with consistent growth were selected for drought treatment. […] After 10 days of drought, the photos were taken.

Experiment [8] concerns cotton. Briefly: Soil drought experiment, cotton. The class given is in vivo. Particulars: 50 μM every 4 days; after 10 days of drought. The method, then: Soybeans and cotton used in leaf transpiration experiments for compound 0720B were also used for soil drought experiments. Each pot contained only one plant and was filled with the same weight of soil to reduce experimental errors. All of the soybean plants were grown at 26° C. for long-day culture. 16 days after seeding, watering was stopped and the plants with consistent growth were selected for drought treatment. […] Cotton drought experiments were similar to that of the soybean. 23 days after seeding, the watering was stopped, and the plants with consistent growth were selected for drought treatment. […] After 10 days of drought, the photos were taken.

The target in experiment [9] is T2, PYL7 + HAB1 (Arabidopsis thaliana, UniProt Q1ECF1).
T2 construct: made in house; host or cells: E. coli BL21 (DE3)
T2 sequence (Q1ECF1 1-211): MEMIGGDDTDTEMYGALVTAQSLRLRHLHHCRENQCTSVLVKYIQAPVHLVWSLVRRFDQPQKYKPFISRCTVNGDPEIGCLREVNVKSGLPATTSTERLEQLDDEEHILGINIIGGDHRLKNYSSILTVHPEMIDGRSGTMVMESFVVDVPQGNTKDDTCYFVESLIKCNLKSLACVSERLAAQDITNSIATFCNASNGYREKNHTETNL
T2 sequence (Q9CAJ0 172-511 partner limits assumed): T1 sequence (Q9CAJ0 172-511 partner limits assumed)
Briefly: AlphaScreen experiment, PYL7 + HAB1. The class given is binding. Particulars: number in brackets; read-out: Half maximum effect concentration EC50 (PYL7 + HAB1). The method, then: as §1

Experiment [10] concerns the target T3, PYR1 + HAB1 (Arabidopsis thaliana, UniProt O49686).
T3 sequence (O49686 1-191): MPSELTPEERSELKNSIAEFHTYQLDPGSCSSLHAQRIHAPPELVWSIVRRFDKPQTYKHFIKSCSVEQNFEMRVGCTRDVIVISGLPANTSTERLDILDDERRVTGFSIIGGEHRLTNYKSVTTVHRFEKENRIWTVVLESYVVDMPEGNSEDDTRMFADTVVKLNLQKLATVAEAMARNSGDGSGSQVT
T3 sequence (Q9CAJ0 172-511 partner): T1 sequence (Q9CAJ0 172-511 partner limits assumed)
Kind of experiment: AlphaScreen experiment, PYR1 + HAB1. The class given is binding. Particulars: column 2; number in brackets; read-out: Half maximum effect concentration EC50 (PYR1 + HAB1). The method, then: as §1

In experiment [11] the test system is soybean GmPYL3 and GmPYL6 + Arabidopsis AtHAB1. Briefly: AlphaScreen experiment with soybean GmPYL receptors. The class given is binding. Particulars: FIG. 9. The method, then: as §1
For experiment [12], the system named is Arabidopsis thaliana Col-0 ecotype seeds. Briefly: Seed germination, Col-0. Type of experiment: in vivo. Particulars: 1 μM. The text has this:
(§4) Two lines of plant were sown simultaneously on a single medium of 6 cm diameter, with 15 seeds sown for each line and 4 replicates for each compound. […]

For experiment [13], the system named is pyr1;pyl1;pyl4 triple mutant seeds. Briefly: Seed germination, PYR/PYL triple mutant. The class given is in vivo, Arabidopsis thaliana. Conditions: 1 μM; six days after seeding.
Text: as §4

Experiment [14] relates to Arabidopsis ABA synthesis defective mutant aba2-1. Type of experiment: in vivo, Arabidopsis thaliana. Conditions: 5 μM sprayed; after 4 days; vs DMSO.
For experiment [15], the system named is Arabidopsis Col-0 ecotype. Briefly: Soil drought experiment, Arabidopsis. Type of experiment: in vivo, Arabidopsis thaliana. The method, then:
Seeds of Arabidopsis Col-0 ecotype were sterilized with NaClO and then sown on ½ MS solid medium at 4° C. for 3 days of vernalization. After 6 days of growing, the well-grown seedlings having uniform size were selected and transferred into 8×7×6 cm^3 pots. Each pot was filled with the same weight of soil and the same number of plants (six plants) was planted to reduce experimental error. All the pots were subjected to a short-day culture at 22° C. After two weeks, watering was stopped for drought treatment. […] The position of the flowerpot was changed every day during the process of drought to reduce the error caused by environmental factors. During the whole drought period, the solution was sprayed twice in total and photos were recorded regularly. The watering was resumed in about three weeks.

Experiment [16] relates to maize (corn). Briefly: Soil drought experiment, maize. Type of experiment: in vivo. Particulars: 50 μM; a week of drought. As for the experimental part:
Only one plant was contained in each pot. All soybean plants were long-day cultured at 26° C. Watering was stopped after the plant had three leaves in each of three groups of leaves and the plants with consistent growth were selected for drought treatment. As for corn, watering was stopped during the small trumpet period for drought treatment. […] After a week, the watering was resumed.

The test system of experiment [17] is ABA-induced environmental stress-related gene expression. Briefly: Gene expression analysis (fluorescence quantitative PCR). Conditions: one day after treatment; ABA 10 μM. The class given is in vivo, Arabidopsis thaliana (Col-0). The method, then:
The whole plant or leaves were taken, and RNA extraction was carried out by using conventional methods. After reverse transcription, the fluorescence quantitative PCR was carried out. Triple biological samples were taken for each treatment which was performed twice. The ACT7 gene was used as a reference gene.

SMILES strings stand for the structures.

Regarding `CCCN1C(=O)CC(C)c2cc(NS(=O)(=O)Cc3c(F)c(F)c(C)c(F)c3F)ccc21` (stereo not drawn) [Compound 0720B], the EC50 in experiment [1] came out at 30 nM. Besides, the “inhibition of the dephosphorylation effect of HAB1 on SnRK2.6 phosphorylated polypeptide compared with ABA” value in experiment [2] was “significantly better than that of ABA at the same concentration”. Further, the “binding ability with PYR1/PYL1/PYL2/PYL7 compared with ABA” value in experiment [3] is recorded as “significantly higher than that of ABA”. Further, in experiment [4], the “PYL receptor binding affinity compared with ABA” value is reported as “significantly superior to ABA”. Moreover, the leaf temperature result in [5] (one day after spraying, 10 μM, 20 μM or 50 μM) was “significantly higher than that of plants in DMSO-sprayed control and that of plants sprayed with 50 μM ABA”; in [5] (two days after spraying, 0720B 20 μM or 50 μM, ABA 50 μM), “significantly higher than that of the DMSO-sprayed control”; in [6] it was “significantly higher than that in plants sprayed with DMSO”. Moreover, the growth after rewatering entry in experiment [7] (10 μM, 20 μM or 50 μM every 3 days, rewatered 11 days after drought) is “significantly better than that of the plants sprayed with DMSO (control) and the plants sprayed with 50 μM ABA”. For the same compound, the growth entry in experiment [8] was “significantly better than that of the plants sprayed with DMSO (control) and the plants sprayed with 50 μM ABA”.

In the case of `CCCN1C(=O)CCc2cc(NS(=O)(=O)Cc3ccc(C)c(F)c3F)ccc21` [Compound 0918], the EC50 in [1] came out at 30 nM; in experiment [9], 20 nM; in experiment [10], 20 nM. For the same compound, the “binding to PYR/PYL receptors” value in [3] is “could bind with PYR1/PYL1/PYL2/PYL3/PYL4/PYL5/PYL7/PYL10”. The “binding ability with PYR1/PYL1/PYL2/PYL7 compared with ABA” value in experiment [3] is given as “significantly higher than those of ABA”. For the same compound, the “affinities for soybean GmPYL proteins compared with ABA” value in [11] is listed as “significantly higher affinities”. Besides, the “inhibition effect on germination of Col-0 ecotype seeds compared with control compound” value in experiment [12] is given as “significantly better inhibition effect”. The “germination of Col-0 ecotype seeds” value in experiment [12] (six days after seeding) is given as “could still inhibit germination of Col-0 ecotype seeds”. The “germination of pyr1;pyl1;pyl4 triple mutant seeds” value in [13] was “could not inhibit germination of PYR/PYL triple mutant pyr1;pyl1;pyl4 seeds”. Besides, in experiment [14], the leaf temperature result is reported as “still higher than that in the control group”. The plant survival result in experiment [15] (5 μM sprayed, 18 days after drought) is “still survived”. Further, the “drought resistance compared with compound with fewer halogen atoms (0604c)” value in experiment [15] (same concentration, after 2 weeks of drought, FIG. 8c) is “stronger drought resistance”. For the same compound, the growth entry in experiment [7] (50 μM, a week of drought, one month after rewatering) was “grew significantly better than the plants sprayed with DMSO (control) and sprayed with 50 μM ABA”. In addition, the survival after rewatering result in [16] is given as “Most of the corn sprayed with compound 0918 survived after rewatering”. Further, the “expression level of relevant genes compared with ABA” value in experiment [17] is recorded as “significantly higher than that in the plants treated with 10 μM ABA”.
